Results on 13 molecules are retold here after patent publication US20240101570A1 (AMGEN INC., priority 2020, published 2024).

In general, IC50 refers to the concentration needed to halve the response being measured.

One assay concerns HCT116 MTAP null cells. The assay is described as follows: HCT116 MTAP null cell proliferation / viability (CellTiter-Glo, 6 days). In kind it is cell-based. The following applies: HCT116-MTAP null, 144 h, HCT116 MTAP null cells, 6 days, CellTiter-Glo; read-out: HCT-116 MTAP null IC50. The procedure: (§1) HCT116 MTAP null and WT cells were seeded in 96-well tissue culture plates in RPMI 1640 media+10% fetal bovine serum. Plates were incubated overnight at 37° C. and 5% CO2. Cells were then treated with an 8- or 9-point serial dilution of compound, using a top concentration of 1, or 10 μM, 1:3 serial dilution steps and, a DMSO-only control. Cells were incubated in the presence of drug for 6 days. Effects on cell viability were measured with the CellTiter-Glo® Luminescent Cell Viability Assay (Promega) per manufacturer's recommendation. Assay plates were read on an EnVision™ Multilabel Reader using the Ultra-Sensitive luminescence module. IC50 values were calculated with GraphPad Prism v 5.01 using symmetrical sigmoidal dose-response least squares fit with Hill slope fixed to −1 and top constrain to 100% or GeneData Screener using a 4-parameter logistic model to fit dose response curves.
(§2) Alternatively, compounds could be assayed with a 384 well plate format:
(§3) Compounds were pre-spotted into 384 well plates with a 22-point serial dilution of compound, using a top concentration of 10 or 50 μM, 1:2 serial dilution steps and, a DMSO-only control. HCT116 MTAP null and WT cells were then seeded as above and after 6 days effects on cell viability were measured with the CellTiter-Glo® Luminescent Cell Viability Assay (Promega). Assay plates were read as above and IC50 values were calculated with GeneData Screener using a 4-parameter logistic model to fit dose response curves. The reported IC50 represents the value where the curve transits 50% of control.
For orientation: In ATP-based viability assays light output follows the ATP content of the culture.

The next assay relates to HCT116 WT cells. The assay is described as follows: HCT116 WT cell proliferation / viability (CellTiter-Glo, 6 days). It counts as cell-based. As to conditions: Homo sapiens, HCT-116, 144 h, HCT116 WT cells, 6 days, CellTiter-Glo; read-out: HCT-116 WT IC50. How it is done:
as §1, §2, §3

As to `CC(CF)N(Cc1ccc(C#N)cn1)C(=O)c1cc2c3c(c(N)nc2cn1)COC3` (racemic) [Example 687, 4-amino-N-((5-cyano-2-pyridinyl)methyl)-N-((2R)-1-fluoro-2-propanyl)-1,3-dihydrofuro[3,4-c][1,7]naphthyridine-8-carboxamide and 4-amino-N-((5-cyano-2-pyridinyl)methyl)-N-((2S)-1-fluoro-2-propanyl)-1,3-dihydrofuro[3,4-c][1,7]naphthyridine-8-carboxamide], the 50% inhibitory concentration (IC50) with HCT116 MTAP null cells and in the assay with HCT116 WT cells was over 10000 nM in each case.
As to `CC(c1ccc(C(F)(F)F)cn1)N(C)C(=O)c1ccc2nc(N)c3c(c2c1)COC3` (racemic) [Example 697, 4-amino-N-methyl-N-((1R)-1-(5-(trifluoromethyl)-2-pyridinyl)ethyl)-1,3-dihydrofuro[3,4-c]quinoline-8-carboxamide and 4-amino-N-methyl-N-((1S)-1-(5-(trifluoromethyl)-2-pyridinyl)ethyl)-1,3-dihydrofuro[3,4-c]quinoline-8-carboxamide], the IC50 stood at 121 nM in the assay on HCT116 MTAP null cells and 4430 nM in the assay with HCT116 WT cells.
For `CC(c1ccc(C(F)(F)F)cn1)N(C)C(=O)c1cnc2nc(N)c3c(c2c1)COC3` (racemic) [Example 700, 4-amino-N-methyl-N-((1R)-1-(5-(trifluoromethyl)-2-pyridinyl)ethyl)-1,3-dihydrofuro[3,4-c][1,8]naphthyridine-8-carboxamide and 4-amino-N-methyl-N-((1S)-1-(5-(trifluoromethyl)-2-pyridinyl)ethyl)-1,3-dihydrofuro[3,4-c][1,8]naphthyridine-8-carboxamide], in that order: 1100 nM and over 10000 nM.
On to `CCN(C(=O)c1cnc2nc(N)c3c(c2c1)COC3)C(C)c1ccc(C(F)(F)F)cn1` (racemic) [Example 705, 4-amino-N-ethyl-N-((1R)-1-(5-(trifluoromethyl)-2-pyridinyl)ethyl)-1,3-dihydrofuro[3,4-c][1,8]naphthyridine-8-carboxamide and 4-amino-N-ethyl-N-((1S)-1-(5-(trifluoromethyl)-2-pyridinyl)ethyl)-1,3-dihydrofuro[3,4-c][1,8]naphthyridine-8-carboxamide], for which the IC50 in the assay with HCT116 MTAP null cells was determined as 637 nM; with HCT116 WT cells it was 28500 nM.
For `CC(c1ccc(C(F)(F)F)cn1)N(C)C(=O)c1cc2c3c(c(N)nc2cn1)COC3` (racemic) [Example 709, 4-amino-N-methyl-N-((1R)-1-(5-(trifluoromethyl)-2-pyridinyl)ethyl)-1,3-dihydrofuro[3,4-c][1,7]naphthyridine-8-carboxamide and 4-amino-N-methyl-N-((1S)-1-(5-(trifluoromethyl)-2-pyridinyl)ethyl)-1,3-dihydrofuro[3,4-c][1,7]naphthyridine-8-carboxamide], in that order: 76 nM and 4250 nM.
As to `CC(c1ccc(C(F)(F)F)cn1)N(C)C(=O)c1ccc2nc(N)c3c(cnn3C)c2c1` (racemic) [Example 716, 4-amino-N,3-dimethyl-N-((1R)-1-(5-(trifluoromethyl)-2-pyridinyl)ethyl)-3H-pyrazolo[3,4-c]quinoline-8-carboxamide and 4-amino-N,3-dimethyl-N-((1S)-1-(5-(trifluoromethyl)-2-pyridinyl)ethyl)-3H-pyrazolo[3,4-c]quinoline-8-carboxamide], the IC50 in the assay on HCT116 MTAP null cells was found to be 917 nM; in the assay with HCT116 WT cells it was 33300 nM.
For `CCN(C(=O)c1cc2c3c(c(N)nc2cc1F)COC3)C(C)c1ccc(C(F)(F)F)cn1` (racemic) [Example 719, 4-amino-N-ethyl-7-fluoro-N-((1R)-1-(5-(trifluoromethyl)-2-pyridinyl)ethyl)-1,3-dihydrofuro[3,4-c]quinoline-8-carboxamide and 4-amino-N-ethyl-7-fluoro-N-((1S)-1-(5-(trifluoromethyl)-2-pyridinyl)ethyl)-1,3-dihydrofuro[3,4-c]quinoline-8-carboxamide], in that order: 1030 nM and 21800 nM.
In the same order, the values of `CC(c1ncc(F)cn1)N(CCOC(F)(F)F)C(=O)c1cc2c3c(c(N)nc2cc1F)COC3` (racemic) [Example 725, 4-amino-7-fluoro-N-((1R)-1-(5-fluoro-2-pyrimidinyl)ethyl)-N-(2-(trifluoromethoxy)ethyl)-1,3-dihydrofuro[3,4-c]quinoline-8-carboxamide and 4-amino-7-fluoro-N-((1S)-1-(5-fluoro-2-pyrimidinyl)ethyl)-N-(2-(trifluoromethoxy)ethyl)-1,3-dihydrofuro[3,4-c]quinoline-8-carboxamide] are 854 nM and over 50000 nM.
For `CCN(C(=O)c1ccc2nc(N)c3c(c2c1)COC3)C(C)c1ccc(Cl)nc1` (racemic) [Example 727, 4-amino-N-((1R)-1-(6-chloro-3-pyridinyl)ethyl)-N-ethyl-1,3-dihydrofuro[3,4-c]quinoline-8-carboxamide and 4-amino-N-((1S)-1-(6-chloro-3-pyridinyl)ethyl)-N-ethyl-1,3-dihydrofuro[3,4-c]quinoline-8-carboxamide], in that order: 279 nM and 12300 nM.
Consider `CCN(C(=O)c1cc2c3c(c(N)nc2cc1Cl)COC3)C(C)c1ccc(Cl)nc1` (racemic) [Example 737, 4-amino-7-chloro-N-((1R)-1-(6-chloro-3-pyridinyl)ethyl)-N-ethyl-1,3-dihydrofuro[3,4-c]quinoline-8-carboxamide and 4-amino-7-chloro-N-((1S)-1-(6-chloro-3-pyridinyl)ethyl)-N-ethyl-1,3-dihydrofuro[3,4-c]quinoline-8-carboxamide], for which the figures for the IC50 with HCT116 MTAP null cells and in the assay on HCT116 WT cells were 59 nM and 2380 nM, respectively.
In the same order, the values of `CCN(C(=O)c1cc2c3c(c(N)nc2cc1F)COC3)C(C)c1ccc(Cl)nc1` (racemic) [Example 739, 4-amino-N-((1R)-1-(6-chloro-3-pyridinyl)ethyl)-N-ethyl-7-fluoro-1,3-dihydrofuro[3,4-c]quinoline-8-carboxamide and 4-amino-N-((1S)-1-(6-chloro-3-pyridinyl)ethyl)-N-ethyl-7-fluoro-1,3-dihydrofuro[3,4-c]quinoline-8-carboxamide] are 71 nM and 2220 nM.
Take `CN(C(=O)c1cc2c3c(c(N)nc2cn1)COC3)C(c1ccc(C(F)(F)F)cn1)C1CC1` (racemic) [Example 764, 4-amino-N-((R)-cyclopropyl(5-(trifluoromethyl)-2-pyridinyl)methyl)-N-methyl-1,3-dihydrofuro[3,4-c][1,7]naphthyridine-8-carboxamide and 4-amino-N-((S)-cyclopropyl(5-(trifluoromethyl)-2-pyridinyl)methyl)-N-methyl-1,3-dihydrofuro[3,4-c][1,7]naphthyridine-8-carboxamide]: the IC50 is 6380 nM in the assay with HCT116 MTAP null cells and over 50000 nM in the assay with HCT116 WT cells.
For `CC(c1ccc(F)cn1)N(C)C(=O)c1cc2c3c(c(N)nc2cc1Cl)COC3` (racemic) [Example 772, 4-amino-7-chloro-N-((1R)-1-(5-fluoro-2-pyridinyl)ethyl)-N-methyl-1,3-dihydrofuro[3,4-c]quinoline-8-carboxamide and 4-amino-7-chloro-N-((1S)-1-(5-fluoro-2-pyridinyl)ethyl)-N-methyl-1,3-dihydrofuro[3,4-c]quinoline-8-carboxamide], in that order: 374 nM and 18200 nM.
